# Measured values: patent US20230129812A1, “COMPOSITIONS AND METHODS FOR TREATING PULMONARY HYPERTENSION” (Acceleron Pharma Inc., priority 2020, published 2023)
# Key:
# [1] = system: pGL3(CAGA)12 reporter gene expression in A-204 cells; assay: A-204 reporter gene assay, stimulation by factors without inhibitors; assay type: cell-based, human; settings: in the absence of any inhibitors
# Text: An A-204 reporter gene assay was used to evaluate the effects of ActRIIB-Fc proteins and ActRIIB variant Fc fusion polypeptides on signaling by GDF-11 and activin A. Cell line: human rhabdomyosarcoma (derived from muscle). Reporter vector: pGL3(CAGA)12 (described in Dennler et al, 1998, EMBO 17: 3091-3100). The CAGA12 motif is present in TGF-beta responsive genes (e.g., PAI-1 gene), so this vector is of general use for factors signaling through SMADs.
# Day 1: Split A-204 cells into 48-well plate.
# Day 2: A-204 cells transfected with 10 ug pGL3(CAGA)12 or pGL3(CAGA)12(10 ug)+pRLCMV (1 pg) and Fugene.
# Day 3: Add factors (diluted into medium+0.1% BSA). Inhibitors need to be preincubated with factors for 1 hr before adding to cells. Six hrs later, cells were rinsed with PBS and lysed.
# This is followed by a luciferase assay.
# [2] = system: Sugen Hypoxia model of PAH; assay: Sugen Hypoxia rat model of PAH (semaxanib/hypoxia); assay type: in vivo; settings: Sugen Hypoxia rats; for decrease of right heart hypertrophy / reduction of mean pulmonary arterial pressure: day 28, compared to vehicle treated animals; for smooth muscle hypertrophy of pulmonary arterioles, average histopathological score: 0 (normal), 1 (minimal), 2 (mild), 3 (moderate), 4 (marked); for pulmonary arterioles completely muscularized / pulmonary arterioles non-muscularized / pulmonary arterioles partially muscularized: αSMA/elastin staining, 100 arterioles per animal
# Experimental: The effects of an ActRIIA-mFc fusion protein (ActRIIA-mFc homodimer as described in Example 1 and sildenafil (a phosphodiesterase-5 inhibitor approved for the treatment of PAH) were further examined the Sugen Hypoxia model of PAH. In this model, rats receive daily doses of semaxanib and are placed in a low oxygen environment (approximately 13% oxygen) to induce PAH 24 hours prior to start of therapy.
# Rats were separated into different treatment groups (10 mice per group): 1) treatment with semaxanib (200 mg/kg administered s.c. as a single dose daily)/hypoxia and Tris buffered saline (administered i.p. as 1 ml/kg, every three days) (vehicle treatment group), 2) treatment with an ActRIIA-mFc polypeptide (10 mg/kg administered i.p. every three days) and semaxanib (200 mg/kg administered s.c. as a single dose daily)/hypoxia, 3) treatment with sildenafil (30 mg/kg administered orally twice daily) and semaxanib (200 mg/kg administered s.c. as a single dose daily)/hypoxia, and 4) control rats (Tris buffered saline administered i.p. as 1 ml/kg, every three days). Rats were treated for 28 days. Body weights were recorded prior to first dose on Day 1 and then weekly throughout the study.
# (§1) On day 28, rats were anesthetized by an intraperitoneal injection of ketamine/xylazine (80/10 mg/kg). An incision was made in the neck, and a jugular vein was isolated and ligated anteriorly. A fluid-filled pressure catheter was introduced into the right jugular vein to measure pulmonary artery pressure (PAP). Another incision was made in the inguinal region, and femoral artery was isolated and ligated anteriorly. A Millar pressure catheter was introduced into a femoral artery to measure systolic arterial pressure, diastolic pressure, and heart rate. Mean arterial pressure and right PAP were monitored using the Notocord HEM (Croissy sur Seine, Frnace) v3.5 data capture system for approximately 5-10 minutes until stable measurements were obtained. During the measurements, rats were maintained at approximately 37° C. on a heating pad and body temperature was monitored throughout the procedure with a rectal temperature probe. At the conclusion of the procedure, rats were euthanized, and the hearts and lungs were removed. The entire heart was weighed. Next, the atria were removed and the left ventricle with septum (LV+S) was separated from the right ventricle (RV). The ventricles were weighed separately. Hypertrophy was assessed, in part, by calculating RV/LV+S. The lungs were also weighed.
# (§2) Similar trends were observed on vessel muscularity based on histopathologic scoring. After staining tissue samples to detect αSMA/elastin, 100 pulmonary arterioles, between 10 m and 50 m in size, per animal were categorized as non-muscularized, partially muscularized, or completely muscularized. Pulmonary arterioles from vehicle treated rats were determined to be 72.5% completely muscularized, 27.4% partially muscularized, and 0.1% non-muscularized. […] Histopathological scoring of smooth muscle hypertrophy of pulmonary arterioles were also recorded as follows: 0 (normal), 1 (minimal), 2 (mild), 3 (moderate), or 4 (marked).
# [3] = system: rat model of pulmonary arterial hypertension (PAH), monocrotaline-induced; assay: Monocrotaline (MCT) rat model of pulmonary arterial hypertension; assay type: in vivo, Sprague Dawley rats; settings: MCT rats; for improvement in body weight: 28 days; for improvement in body weight / decrease of right heart hypertrophy / decrease of lung weight / reduction of elevated PAP: compared to monocrotaline treated rats (vehicle); for decrease of right heart hypertrophy / decrease of lung weight / reduction of elevated PAP: day 28; for decrease of right heart hypertrophy: RV/LV+S; for smooth muscle hypertrophy of pulmonary arterioles, average histopathological score: 0 (normal), 1 (minimal), 2 (mild), 3 (moderate), 4 (marked); for pulmonary arterioles completely muscularized / pulmonary arterioles non-muscularized / pulmonary arterioles partially muscularized: αSMA/elastin staining, 100 arterioles per animal
# Experimental: The effects of an ActRIIA-mFc fusion protein (ActRIIA-mFc homodimer as described in Example 1), an ALK4-Fc-ActRIIB-Fc heterodimer (as described in Examples 12 and 13), and sildenafil (a phosphodiesterase-5 inhibitor approved for the treatment of PAH) were examined in a rat model of pulmonary arterial hypertension (PAH). In this model, Sprague Dawley rats received a […] injection of monocrotaline (MCT) to induce PAH 24 hours prior to start of therapy.
# Rats were separated into different treatment groups (10 mice per group): 1) treatment with MCT (60 mg/kg administered i.p. as a single dose at day 1 of study) and Tris buffered saline (i.p. as 1 ml/kg, every three days) (vehicle treatment group), 2) treatment with an ActRIIA-mFc polypeptide (10 mg/kg administered i.p. every three days) and MCT (60 mg/kg administered i.p. as a single dose at day 1 of study), 3) treatment with an ALK4-Fc:ActRIIB-Fc heterodimer (10 mg/kg administered i.p. every three days) and MCT (60 mg/kg administered i.p. as a single dose at day 1 of study), 4) treatment with sildenafil (30 mg/kg administered orally twice daily) and MCT (60 mg/kg administered i.p. as a single dose at day 1 of study), and 5) control rats (Tris buffered saline administered i.p. as 1 ml/kg, every three days). Rats were treated for 28 days. Body weights were recorded prior to first dose on Day 1 and then weekly throughout the study.
# as §1
# as §2, with “10 μm” for “10 m”, “be 62.3%” for “be 72.5%”, “muscularized, 36.4%” for “muscularized, 27.4%”, “and 1.4%” for “and 0.1%”
# GDF11 = molecular target: T1, GDF11 (Homo sapiens, UniProt O95390); assay: Biacore ligand affinity of ActRIIB-hFc forms, steady-state affinity fit; assay type: binding
# T1 sequence (O95390 299-407): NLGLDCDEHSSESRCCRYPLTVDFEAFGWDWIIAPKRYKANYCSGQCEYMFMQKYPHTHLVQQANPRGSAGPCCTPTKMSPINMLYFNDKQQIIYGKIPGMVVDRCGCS
# Experimental: (§3) Affinities of several ligands for ActRIIB(25-131)-hFc and its full-length counterpart ActRIIB(20-134)-hFc were evaluated in vitro with a Biacore™ instrument, and the results are summarized in Table 8 below. Kd values were obtained by steady-state affinity fit due to very rapid association and dissociation of the complex, which prevented accurate determination of kon and koff. ActRIIB(25-131)-hFc bound, for example, activin A, activin B, and GDF11 with high affinity.
# (§4) The affinity of ActRIIB variants and other ActRIIB-hFc proteins for several ligands was evaluated in vitro with a Biacore™ instrument. Kd values were obtained by steady-state affinity fit due to the very rapid association and dissociation of the complex, which prevented accurate determination of kon and koff.
# activin A = molecular target: T2, activin A (Homo sapiens, UniProt P08476); assay: as above; assay type: binding
# T2 sequence (P08476 311-426): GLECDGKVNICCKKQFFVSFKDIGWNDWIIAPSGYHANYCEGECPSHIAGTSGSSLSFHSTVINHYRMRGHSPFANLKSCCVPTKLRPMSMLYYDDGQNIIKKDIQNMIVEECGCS
# Experimental: as §3, §4
# activin B = molecular target: T3, activin B (Homo sapiens, UniProt P09529); assay: as above; assay type: binding
# T3 sequence (P09529 293-407): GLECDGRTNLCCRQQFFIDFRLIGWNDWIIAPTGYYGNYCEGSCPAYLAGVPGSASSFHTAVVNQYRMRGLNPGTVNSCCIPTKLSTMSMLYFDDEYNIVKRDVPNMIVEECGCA
# Experimental: as §3, §4
Compound,ED50 [1] [ng/mL],stimulation of reporter gene expression [1] [fold],decrease of right heart hypertrophy [2] [%],reduction of mean pulmonary arterial pressure [2] [%],"smooth muscle hypertrophy of pulmonary arterioles, average histopathological score [2]",pulmonary arterioles completely muscularized [2] [%],pulmonary arterioles non-muscularized [2] [%],pulmonary arterioles partially muscularized [2] [%],improvement in body weight [3],decrease of right heart hypertrophy [3] [%],decrease of lung weight [3] [%],reduction of elevated PAP [3] [%],"smooth muscle hypertrophy of pulmonary arterioles, average histopathological score [3]",pulmonary arterioles completely muscularized [3] [%],pulmonary arterioles non-muscularized [3] [%],pulmonary arterioles partially muscularized [3] [%],further results
activin A: TGF-beta superfamily ligand added as factor in the A-204 reporter gene assay,~2,10,–,–,–,–,–,–,–,–,–,–,–,–,–,–,–
ActRIIA-mFc: extracellular domain of human ActRIIa fused to a mouse Fc domain with a minimal linker; homodimer,–,–,53.5,51.3,1.4,29.3,1.4,69.3,did not show improvement in body weight,47.1,18.4,68,1.6,25.8,7.3,66.9,–
GDF-11: TGF-beta superfamily ligand added as factor in the A-204 reporter gene assay,~1.5,16,–,–,–,–,–,–,–,–,–,–,–,–,–,–,–
"CCCc1nn(C)c2c(=O)[nH]c(-c3cc(S(=O)(=O)N4CCN(C)CC4)ccc3OCC)nc12 [sildenafil, reference compound]",–,–,10,22.4,3,67.4,1.0,31.6,did not have any improvement in body weight,18.5,10,30,3,57.9,0.9,41.6,–
ActRIIB(25-131)-hFc: human ActRIIB extracellular domain with N- and C-terminal truncations (residues 25-131) fused to human Fc via three glycines,–,–,–,–,–,–,–,–,–,–,–,–,–,–,–,–,"GDF11 binding (GDF11; Biacore): high affinity; Kd (GDF11; Table 12, Kd by steady-state affinity fit, read-out: GDF11 (Kd e−11)): 0.031 nM; activin A binding (activin A; Biacore): high affinity; Kd (activin A; Table 12, Kd by steady-state affinity fit, read-out: Activin A (Kd e−11)): 0.018 nM; activin B binding (activin B; Biacore): high affinity; Kd (activin B; Table 12, Kd by steady-state affinity fit, read-out: Activin B (Kd e−11)): 0.012 nM"
